Here are results for 23 compounds from PubChem BioAssay (NCI).

Common to all, as to test: NCI anticancer screen, dose series, 48 h
For experiment [1], the system named is IGROV1 ovarian.
Experiment [2] relates to T-47D breast.
Experiment [3] relates to EKVX NSCLC.
In experiment [4] the test system is A498 renal.
The subject of experiment [5] is HCC-2998 colon.
The subject of experiment [6] is BT-549 breast.
The test system of experiment [7] is SF-295 CNS.
In experiment [8] the test system is MCF7 breast.
Experiment [9] deals with HT29 colon.
Experiment [10] deals with MOLT-4 leukemia.
The subject of experiment [11] is NCI/ADR-RES ovarian.
The subject of experiment [12] is KM12 colon.
The subject of experiment [13] is SNB-75 CNS.

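96-well plates; 48 h exposure; 5 concentrations. Endpoints by linear interpolation between flanking doses. Not reached: highest tested concentration assigned. TGI is the concentration that stops growth completely.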

As for `CC(=O)/C(=C\n1c(=S)[nH]c2ccc([N+](=O)[O-])cc21)C(=O)Nc1ccccc1C`, the TGI in experiment [1], in experiment [2], in [3], in [4], in [5] and in [6] was greater than 100 µM throughout. The TGI in experiment [7], in experiment [8], in experiment [9], in experiment [10] and in experiment [11] was greater than 100 µM each time.
On to `O=C(CN1c2ccccc2Sc2ccccc21)n1cnc2ccccc21`, for which the TGI in experiment [1], in experiment [12], in experiment [2], in [3], in experiment [4] and in [6] was greater than 100 µM throughout. The TGI in experiment [7], in experiment [13], in experiment [8], in experiment [9], in experiment [10] and in [11] was greater than 100 µM throughout.
With `COC(=O)/C=C(\S/C(=C(/c1ccccc1)n1cc(C(=O)OC)c(C(=O)OC)n1)c1ccccc1)C(=O)OC`, the TGI in [1] was 31.9 µM; in [12], greater than 100 µM; in experiment [2] it was 14.1 µM; in [3] it was 32.1 µM; in experiment [4] it was greater than 100 µM; in [6], 98.7 µM. In addition, the TGI in experiment [7] was greater than 100 µM; in [13], 95.2 µM; in experiment [8], 22.9 µM; in [9] it was 18.6 µM; in [10] it was 12.4 µM; in experiment [11] it was 89.1 µM.
For `CCOP(=O)(OCC)OC1CC(n2cnc3c(N(CC)CC)ncnc32)OC1CO[Si](C)(C)C(C)(C)C` (stereo not given), the TGI in experiment [1] turned out to be 32.3 µM; in [12] it was 38.6 µM; in [2], 27.8 µM; in [3], 20.5 µM; in experiment [5], 43.8 µM; in experiment [6] it was 29.7 µM. Besides, the TGI was 31 µM in experiment [7]; 23.3 µM in [13]; 39.8 µM in [8]; 35 µM in [9]; 30.7 µM in experiment [10]; 51.8 µM in experiment [11].
Regarding `COC1(CCO)CC=CCC1(CCO)OC` (stereo not given), the TGI in experiment [1], in experiment [12], in experiment [2], in [3], in experiment [6] and in experiment [7] was greater than 100 µM each time. For the same compound, the TGI in experiment [13], in experiment [8], in [9], in [10] and in [11] was greater than 100 µM throughout.
Regarding `CN(Cc1cnc2nc(N)nc(N)c2n1)c1ccc(C(=O)NC2CCCCC2)cc1`, the TGI in [1] is 45.6 µM; in experiment [12], 83.2 µM; in experiment [2], greater than 100 µM; in experiment [3], greater than 100 µM; in [4], 77.3 µM; in [6], greater than 100 µM. The TGI in experiment [7] is greater than 100 µM; in experiment [13] it was 65.4 µM; in experiment [8], greater than 100 µM; in experiment [9], 31 µM; in experiment [10], greater than 100 µM; in [11], greater than 100 µM.
As for `CCCCC[C@H]1CC=CC(=O)O1`, the TGI in experiment [1] was found to be 27.3 µM; in experiment [12], 13.9 µM; in experiment [2], 30.9 µM; in experiment [3], 56.7 µM; in [4], 9.03 µM; in experiment [5] it was 19.7 µM. The TGI in experiment [6] came out at 20.3 µM; in experiment [7] it was 37.1 µM; in [8], 19.6 µM; in [9], 19.8 µM; in experiment [10], 18.8 µM; in experiment [11] it was 27.1 µM.
Turning to `CCC1c2[nH]c3ccccc3c2C[C@H]2C(=O)NC(Cc3ccccc3)C(=O)N12` (stereo not given in full), the TGI in experiment [1] is 74.7 µM; in experiment [12], 66 µM; in experiment [2], 73.1 µM; in experiment [3], 95 µM; in experiment [4], greater than 100 µM; in experiment [5], 62.1 µM. In addition, the TGI in experiment [6] is 62.4 µM; in [7] it was 57.8 µM; in experiment [8], greater than 100 µM; in experiment [9], 52.6 µM; in [10], 56.9 µM; in experiment [11], 95.3 µM.
On to `CN(N=O)C(N)=NC(=O)c1ccccc1`, for which the TGI in [1], in [12], in experiment [2], in experiment [3], in [4] and in experiment [6] was greater than 100 µM each time. Also, the TGI in experiment [7], in experiment [13], in experiment [8], in experiment [9], in experiment [10] and in experiment [11] was greater than 100 µM in each case.
In the case of `COc1ccc2[nH]c3c(c2c1)CCc1ccccc1-3`, the TGI in experiment [1], in [12], in experiment [2], in [3], in [5] and in experiment [6] was greater than 100 µM throughout. Further, the TGI was greater than 100 µM in experiment [7]; 75.2 µM in experiment [13]; greater than 100 µM in experiment [8]; greater than 100 µM in experiment [9]; greater than 100 µM in experiment [10]; greater than 100 µM in [11].
For the compound `N/C(=N/O)c1cn(C2OC(CO)C(O)C2O)c2ncnc(NO)c12` (stereo not given), the TGI was greater than 51 µM in experiment [1]; greater than 35.3 µM in [2]; greater than 100 µM in experiment [3]; 3.01 µM in experiment [4]; 7.12 µM in [5]; greater than 100 µM in experiment [6]. Besides, the TGI is 54.7 µM in [7]; 23.2 µM in [8]; greater than 100 µM in experiment [9]; 0.395 µM in experiment [10]; 7.19 µM in [11].
For the compound `Nc1cccc2cc(S(=O)(=O)Nc3ccc(C(=O)O)cc3)ccc12`, the TGI in experiment [1], in experiment [12], in [2], in experiment [3], in experiment [4] and in experiment [5] was greater than 100 µM in each case. The TGI in [6], in [7], in experiment [13], in experiment [8], in experiment [9] and in [11] was greater than 100 µM each time.
`CCCN=C1S/C(=C/c2ccc(OC)c(OC)c2)C(=O)N1c1ccccc1`: the TGI in [1] is greater than 100 µM; in [12], greater than 100 µM; in [2] it was greater than 100 µM; in experiment [3] it was greater than 100 µM; in [4], 58.2 µM; in experiment [5], greater than 100 µM. The TGI in experiment [6] is greater than 100 µM; in [7], 34.9 µM; in [8], greater than 100 µM; in [9], greater than 100 µM; in experiment [10], greater than 100 µM; in [11] it was greater than 100 µM.
Take `N#CCCN(CCC#N)c1ccc(/C=C2\N=C(c3ccccc3)N(NC(=O)c3ccncc3)C2=O)cc1`: the TGI in experiment [1], in experiment [12], in experiment [2], in experiment [3], in experiment [4] and in [6] was greater than 100 µM in each case. Moreover, the TGI in experiment [7], in experiment [8], in experiment [9], in experiment [10] and in experiment [11] was greater than 100 µM throughout.
With `ClCc1nc2cc(Cl)ccc2o1`, the TGI came out at 3.29 µM in experiment [1]; 28.6 µM in experiment [12]; 5.15 µM in experiment [2]; 8.89 µM in [3]; 5.9 µM in experiment [5]; 28.2 µM in experiment [6]. Further, the TGI was 37.4 µM in [7]; 24.1 µM in experiment [13]; 7.65 µM in experiment [8]; 6.5 µM in experiment [9]; greater than 100 µM in experiment [10]; 98.4 µM in experiment [11].
For the compound `CC(C)(C)OC(=O)N1CCC[C@H]1CSC[C@@H]1CCCN1C(=O)OC(C)(C)C`, the TGI is greater than 100 µM in [1]; 48.2 µM in experiment [12]; 80.7 µM in [2]; greater than 100 µM in experiment [3]; greater than 100 µM in [5]; 58.9 µM in experiment [6]. The TGI in experiment [7] was greater than 100 µM; in [13], 77.2 µM; in experiment [8], 96.3 µM; in experiment [9], 34.9 µM; in experiment [10], 37.5 µM; in [11] it was 48.9 µM.
Turning to `O=C1c2cc([N+](=O)[O-])cnc2S(=O)(=O)N1c1ccc(Oc2ccccc2)cc1`, the TGI in [1], in experiment [12], in experiment [2], in [3], in experiment [5] and in experiment [6] was greater than 100 µM each time. Further, the TGI in experiment [7], in experiment [13], in experiment [8], in [10] and in experiment [11] was greater than 100 µM each time.
On to `O=C(O)C1CCCCN1CCc1c[nH]c2ccccc12` (stereo not given), for which the TGI in experiment [1], in [12], in [2], in experiment [3], in experiment [5] and in experiment [6] was greater than 100 µM throughout. Moreover, the TGI in experiment [7], in experiment [13], in [8], in experiment [9], in [10] and in experiment [11] was greater than 100 µM each time.
In the case of `CC(C)=CCc1c(O)c(CC=C(C)C)c2oc3c(c(=O)c2c1O)C(C=C(C)C)Oc1cc(O)ccc1-3` (stereo not given), the TGI was 20.2 µM in experiment [1]; 11.6 µM in experiment [12]; 15.4 µM in experiment [2]; 14.5 µM in [3]; 29.8 µM in experiment [4]; 25 µM in experiment [6]. The TGI in [7] came to 19.2 µM; in experiment [13] it was 14.1 µM; in experiment [8] it was 17.5 µM; in [9], 23.1 µM; in experiment [10], 16.6 µM; in experiment [11], 38.4 µM.
In the case of `CC1C2CC(CC2=O)C1(C)C` (stereo not given), the TGI in experiment [1], in experiment [12], in experiment [2], in [3], in experiment [4] and in [5] was greater than 100 µM in each case. Besides, the TGI in experiment [6], in experiment [7], in experiment [13], in experiment [8], in experiment [9] and in [10] was greater than 100 µM throughout.
`C=C1C(=O)OC2C3C(=C)[C@@H](OC(C)=O)CC3C(C)=CC(OC(=O)C(C)(O)C(C)OC(C)=O)[C@@H]12` (stereo not given in full): the TGI in experiment [1] turned out to be 21.3 µM; in experiment [12] it was 28.5 µM; in experiment [2] it was 39 µM; in experiment [3], 30.2 µM; in [4], 32.3 µM; in experiment [5], 29.7 µM. The TGI in [6] is 26.7 µM; in experiment [7] it was greater than 100 µM; in experiment [13], 28.4 µM; in [8] it was 22.9 µM; in experiment [9] it was 19.4 µM; in experiment [10], greater than 100 µM.
As for `CC1(c2nc3ccccc3[nH]2)CCC(CO)C(C)(C)O1` (stereo not given), the TGI in experiment [1], in experiment [12], in experiment [2], in [3], in experiment [5] and in experiment [6] was greater than 100 µM in each case. The TGI in [7], in [13], in experiment [8], in experiment [9], in experiment [10] and in [11] was greater than 100 µM in each case.
On to `C/C(O)=C/c1nc2sc(C)c(C)c2c(=O)s1`, for which the TGI in [1], in experiment [12], in experiment [2], in experiment [3], in experiment [4] and in experiment [6] was greater than 100 µM in each case. Also, the TGI in experiment [7], in experiment [13], in experiment [8], in experiment [9] and in [11] was greater than 100 µM each time.
